Patent US20250268903A1, “RXFP1 AGONISTS” (BRISTOL-MYERS SQUIBB COMPANY, priority 2021, published 2025)
pEC50: −log10 of the molar value.

Target: T1, human RXFP1 (Homo sapiens, UniProt Q9HBX9)
T1 construct: expressed in transfected cells
T1 sequence (Q9HBX9 1-757): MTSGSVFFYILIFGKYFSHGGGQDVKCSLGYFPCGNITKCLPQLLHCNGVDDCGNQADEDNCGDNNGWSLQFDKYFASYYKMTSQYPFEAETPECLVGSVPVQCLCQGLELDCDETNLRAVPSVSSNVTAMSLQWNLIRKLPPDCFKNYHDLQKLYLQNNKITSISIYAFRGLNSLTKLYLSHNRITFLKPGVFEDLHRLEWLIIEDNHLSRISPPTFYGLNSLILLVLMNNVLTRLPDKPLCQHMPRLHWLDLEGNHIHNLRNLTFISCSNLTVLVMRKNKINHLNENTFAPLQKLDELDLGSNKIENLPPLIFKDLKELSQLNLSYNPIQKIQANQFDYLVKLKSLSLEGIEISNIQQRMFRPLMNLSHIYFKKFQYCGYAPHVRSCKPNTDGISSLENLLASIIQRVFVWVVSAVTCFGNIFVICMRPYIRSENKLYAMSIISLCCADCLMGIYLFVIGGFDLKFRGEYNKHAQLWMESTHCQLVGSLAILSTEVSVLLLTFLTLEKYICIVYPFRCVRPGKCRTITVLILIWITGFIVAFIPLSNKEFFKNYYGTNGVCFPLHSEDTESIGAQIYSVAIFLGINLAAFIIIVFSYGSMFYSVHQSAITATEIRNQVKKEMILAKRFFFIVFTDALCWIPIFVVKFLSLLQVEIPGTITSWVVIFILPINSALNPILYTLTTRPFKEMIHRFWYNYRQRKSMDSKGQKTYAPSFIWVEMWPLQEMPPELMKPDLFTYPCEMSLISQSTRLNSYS
Assay: hRXFP1 HEK293 cAMP assay (HTRF)
Format: cell-based
Conditions: HEK293 cells stably expressing human RXFP1, 30 min at room temperature
Procedure, shortened: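 Potency and activity come from a four-parameter logistic fit of cAMP against compound concentration, tested from 0.010 nM up to 50 μM. The assay uses HEK293 cells stably expressing human RXFP1, incubated 30 min at ambient temperature with phosphodiesterase inhibitor IBMX present.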

Compound | pEC50
COc1ccc(C2CCCC(O)C2)cc1C(=O)N[C@@H]1C2CCC(/C2=C/C(F)(F)F)[C@@H]1C(=O)Nc1ccc(F)c(C(F)(F)F)c1 (single isomer, unassigned) [Example 36] | 6.35
O=C(N[C@H]1[C@@H](C(=O)Nc2ccc(F)c(C(F)(F)F)c2)[C@H]2CC[C@@H]1/C2=C\C(F)(F)F)c1cc(C#CCO)ccc1OCCO [Example 106, (1R,2S,3R,4R,Z)—N-(4-fluoro-3-(trifluoromethyl)phenyl)-3-(2-(2-hydroxyethoxy)-5-(3-hydroxyprop-1-yn-1-yl)benzamido)-7-(2,2,2-trifluoroethylidene) bicyclo[2.2.1]heptane-2-carboxamide] | 6.42
2-(3-{[(2R,3S,7Z)- 3-{[4-fluoro-3- (trifluoromethyl)phe- nyl]carbamoyl}-7- (2,2,2- trifluoroethylidene)bi- cyclo[2.2.1]heptan- 2-yl]carbamoyl}-4- methoxyphenyl)ethyl N-phenylcarbamate [Example 56] | 6.35
COc1ccc(C[C@@H]2CCC(=O)N2)cc1C(=O)NC1C2CCC(/C2=C/C(F)(F)F)[C@@H]1C(=O)Nc1ccc(F)c(C(F)(F)F)c1 (stereo partly drawn) [Example 183, (7Z)-N-[4-fluoro-3-(trifluoromethyl)phe-nyl]-3-(2-methoxy-5-{[(2S)-5-oxopyrrolidin-2-yl]methyl}benzamido)-7-(2,2,2-trifluoroethylidene)bi-cyclo[2.2.1]heptane-2-carboxamide] | 6.07
COc1ccc(CCCO)cc1C(=O)N[C@H]1[C@@H](C(=O)NCC(C)(C)C)[C@H]2CC[C@@H]1/C2=C\C1CC1 [Example 270, (1R,2S,3R,4R,7Z)-7-(cyclopropylmethyl-idene)-N-(2,2-dimethylpropyl)-3-[5-(3-hydroxypropyl)-2-methoxybenzamido] bicyclo[2.2.1]heptane-2-carboxamide] | 6.16
COc1ccc(S(N)(=O)=O)cc1C(=O)N[C@@H]1C2CCC(C2=C(C)C)[C@@H]1C(=O)Nc1ccc(F)c(C(F)(F)F)c1 (stereo partly drawn) [Example 207, (2S,3R)-N-[4-fluoro-3-(trifluoromethyl)phenyl]-3-(2-methoxy-5-sulfamoylbenzamido)-7-(propan-2-ylidene)bicyclo[2.2.1] heptane-2-carboxamide] | 6.05
COc1ccc(C(C)CCO)cc1C(=O)N[C@@H]1C2CCC(/C2=C/C(F)(F)F)[C@@H]1C(=O)Nc1ccc(F)c(C(F)(F)F)c1 (single isomer, unassigned) [Example 60] | 6.19
COCCCc1ccc(OC)c(C(=O)NC2C3CCC(/C3=C/C(F)(F)F)[C@@H]2C(=O)Nc2ccc(F)c(C(F)(F)F)c2)c1 (stereo partly drawn) [Example 189, (2S,3R,7Z)-N-[4-fluoro-3-(trifluoromethyl)phe-nyl]-3-[2-methoxy-5-(3-methoxypropyl)benz-amido]-7-(2,2,2-trifluoroethylidene)bi-cyclo[2.2.1]heptane-2-carboxamide] | 6.31
COc1ccc(/C=C/C(N)=O)cc1C(=O)N[C@@H]1C2CCC(/C2=C/C(F)(F)F)[C@@H]1C(=O)Nc1ccc(F)c(C(F)(F)F)c1 (stereo partly drawn) [Example 132, (2S,3R,7Z)-3-{5-[(1E)-2-carbamoyleth-1-en-1-yl]-2-methoxybenzamido}-N-[4-fluoro-3-(trifluoromethyl)phe-nyl]-7-(2,2,2-trifluoroethylidene)bi-cyclo[2.2.1]heptane-2-carboxamide] | 6.42
COc1ccc(CCCNC(=O)[C@H](C)O)cc1C(=O)N[C@@H]1C2CCC(/C2=C/C(F)(F)F)[C@@H]1C(=O)Nc1ccc(F)c(C(F)(F)F)c1 (stereo partly drawn) [Example 114] | 6.34

The next compounds have a higher pEC50 than those just listed; values first:

pEC50 | Compound
6.47 | COc1ccc(S(=O)(=O)CCO)cc1C(=O)N[C@H]1[C@@H](C(=O)Nc2ccc(F)c(C(F)(F)F)c2)[C@H]2CC[C@@H]1/C2=C\C(F)(F)F [Example 4, (1R,2S,3R,4R,Z)—N-(4-fluoro-3-(trifluoromethyl)phenyl)-3-(5-((2-hydroxyethyl)sulfonyl)-2-methoxybenzamido)-7-(2,2,2-trifluoroethylidene) bicyclo[2.2.1]heptane-2-carboxamide]
6.59 | COc1ccc(CCC(=O)O)cc1C(=O)N[C@@H]1C2CCC(/C2=C/C(F)(F)F)[C@@H]1C(=O)Nc1ccc(F)c(C(F)(F)F)c1 (stereo partly drawn) [Example 9, 3-(3-{[(2R,3S,7Z)-3-{[4-fluoro-3-(trifluoromethyl)phenyl]carbamoyl}-7-(2,2,2-trifluoroethylidene)bicyclo[2.2.1]heptan-2-yl]carbamoyl}-4-methoxyphenyl) propanoic acid]
6.61 | COc1ccc(C(C)(C)CCO)cc1C(=O)N[C@H]1[C@@H](C(=O)Nc2ccc(F)c(C(F)(F)F)c2)[C@H]2CC[C@@H]1/C2=C\C1CC1 [Example 269, (1R,2S,3R,4R,7Z)-7-(cyclopropyl-methylidene)-N-[4-fluoro-3-(trifluoromethyl)phenyl]-3-[5-(4-hydroxy-2-methylbutan-2-yl)-2-methoxybenzamido] bicyclo[2.2.1] heptane-2-carboxamide]
6.69 | COc1ccc(S(=O)(=O)N2CCO[C@@H](CO)C2)cc1C(=O)NC1C2CCC(/C2=C/C(F)(F)F)[C@@H]1C(=O)Nc1ccc(F)c(C(F)(F)F)c1 (stereo partly drawn) [Example 200, (2S,3R,7Z)-N-[4-fluoro-3-(trifluoromethyl)phe-nyl]-3-(5-{[(2R)-2-(hydroxymethyl)mor-pholin-4-yl]sulfonyl}-2-methoxybenzamido)-7-(2,2,2-trifluoroethylidene)bi-cyclo[2.2.1]heptane-2-carboxamide]
6.69 | CCOC(=O)C1CCC(c2ccc(OC)c(C(=O)NC3C4CCC(/C4=C/C(F)(F)F)[C@@H]3C(=O)Nc3ccc(F)c(C(F)(F)F)c3)c2)CC1 (stereo partly drawn) [Example 143, ethyl 4-(3-{[(2R,3S,7Z)-3-{[4-fluoro-3-(trifluoromethyl)phe-nyl]carbamoyl}-7-(2,2,2-trifluoroethylidene)bi-cyclo[2.2.1]heptan-2-yl]carbamoyl}-4-methoxyphenyl)cyclo-hexane-1-carboxylate]
6.73 | COc1ccc(S(=O)(=O)N2CCS(=O)(=O)CC2)cc1C(=O)NC1C2CCC(/C2=C/C(F)(F)F)[C@@H]1C(=O)Nc1ccc(F)c(C(F)(F)F)c1 (stereo partly drawn) [Example 202, (2S,3R,7Z)-3-{5-[(1,1-dioxo-1λ^6-thiomorpholin-4-yl)sulfonyl]-2-methoxybenzamido}-N-[4-fluoro-3-(trifluoromethyl)phe-nyl]-7-(2,2,2-trifluoroethylidene)bi-cyclo[2.2.1]heptane-2-carboxamide]
6.74 | COc1ccc(C(=O)NCCCO)cc1C(=O)N[C@H]1[C@@H](C(=O)Nc2ccc(F)c(C(F)(F)F)c2)[C@H]2CC[C@@H]1/C2=C\C1CC1 [Example 229, N3-[(1R,2R,3S,4R,7Z)-7-(cyclopropyl-methylidene)-3-{[4-fluoro-3-(trifluoromethyl)phenyl]carbamoyl}bicyclo[2.2.1]heptan-2-yl]-N1-(3-hydroxypropyl)-4-methoxybenzene-1,3-dicarboxamide]
6.87 | COc1ccc(C2CCCC(C(=O)O)C2)cc1C(=O)NC1C2CCC(/C2=C/C(F)(F)F)[C@@H]1C(=O)Nc1ccc(F)c(C(F)(F)F)c1 (stereo partly drawn) [Example 144, 3-(3-{[(2R,3S,7Z)-3-{[4-fluoro-3-(trifluoromethyl)phe-nyl]carbamoyl}-7-(2,2,2-trifluoroethylidene)bi-cyclo[2.2.1]heptan-2-yl]carbamoyl}-4-methoxyphenyl)cyclo-hexane-1-carboxylic acid]
7.23 | COc1cc(F)c(O[C@H]2CC[C@](C)(C(=O)O)CC2)cc1C(=O)N[C@H]1[C@@H](C(=O)NCC2(C)CCC2)[C@H]2CC[C@@H]1/C2=C\C1CC1 [Example 377, (1R,4r)-4-(5-(((1R,2R,3S,4R,Z)-7-(cyclopropyl-methylene)-3-(((1-methylcyclobutyl)methyl)carbamoyl)bicyclo[2.2.1]heptan-2-yl)carbamoyl)-2-fluoro-4-methoxyphenoxy)-1-methylcyclohexane-1-carboxylic acid]
7.38 | COc1ccc(C23CCC(C(C)(C)O)(CC2)CC3)cc1C(=O)N[C@H]1[C@@H](C(=O)Nc2ccc(F)c(C(F)(F)F)c2)[C@H]2CC[C@@H]1/C2=C\C1CC1 [Example 275, (1R,2S,3R,4R,7Z)-7-(cyclopropylmethyl-idene)-N-[4-fluoro-3-(trifluoromethyl)phenyl]-3-{5-[4-(2-hydroxypropan-2-yl)bicyclo[2.2.2]octan-1-yl]-2-methoxybenzamido} bicyclo[2.2.1]heptane-2-carboxamide]
7.55 | COc1ccc(COC[C@@H]2C[C@@H]2C(=O)O)cc1C(=O)N[C@H]1[C@@H](C(=O)Nc2ccc(F)c(C(F)(F)F)c2)[C@H]2CC[C@@H]1/C2=C\C1CC1 [Example 292, (1S,2R)-2-{[(3-{[(1R.2R,3S,4R,7Z)-7-(cyclopropyl-methylidene)-3-{[4-fluoro-3-(trifluoromethyl)phenyl]carbamoyl}bicyclo[2.2.1]heptan-2-yl]carbamoyl}-4-methoxyphenyl)methoxy]methyl} cyclopropane-1-carboxylic acid]
